Measurements as given in ChEMBL document CHEMBL4613253, “Effective Application of Metabolite Profiling in Drug Design and Discovery” (J Med Chem, 2020).
pEC50, pIC50: −log10 of the molar value. Values belong to the molecule of their own block, whether it stands above or below them.

How the values were obtained:
[1] = Half life in rat liver microsomes at 1 uM measured up to 60 mins by LC-MS/MS analysis; type: ADME, Microsome
[2] = Half life in dog liver microsomes at 1 uM measured up to 60 mins by LC-MS/MS analysis; type: ADME, Canis lupus familiaris, Microsome
[3] = Half life in human liver microsomes at 1 uM measured up to 60 mins by LC-MS/MS analysis; type: ADME, Microsome
[4] = Plasma clearance in Wistar-Han rat at 1 mg/kg, iv measured up to 24 hrs by LC-MS/MS analysis; type: ADME, organism-based
[5] = Plasma clearance in Beagle dog at 1 mg/kg, iv measured up to 24 hrs by LC-MS/MS analysis; type: ADME, organism-based, Canis lupus familiaris
[6] = Half life in human plasma at 1 uM incubated for 0 to 120 mins by LC-MS/MS method; type: ADME, cell-free
[7] = Half life in dog plasma at 1 uM incubated for 0 to 120 mins by LC-MS/MS method; type: ADME, cell-free, Canis lupus familiaris
[8] = Half life in monkey plasma at 1 uM incubated for 0 to 120 mins by LC-MS/MS method; type: ADME, cell-free, Macaca mulatta; settings: rhesus monkey
[9] = target: cGMP-dependent 3',5'-cyclic phosphodiesterase (Homo sapiens, UniProt O00408); test: Inhibition of PDE2 (unknown origin)
[10] = Half life in guinea pig plasma at 1 uM incubated for 0 to 120 mins by LC-MS/MS method; type: ADME, cell-free, Cavia porcellus
[11] = Half life in rat plasma at 1 uM incubated for 0 to 120 mins by LC-MS/MS method; type: ADME, cell-free
[12] = target: T1, Glucose-dependent insulinotropic receptor (Homo sapiens, UniProt Q8TDV5); test: Agonist activity at human GPR119 expressed in HEK293 cells preincubated for 30 mins followed by d2 cAMP addition and measured after 60 mins by HTRF assay; type: functional, cell-based
T1 sequence (Q8TDV5 whole entry): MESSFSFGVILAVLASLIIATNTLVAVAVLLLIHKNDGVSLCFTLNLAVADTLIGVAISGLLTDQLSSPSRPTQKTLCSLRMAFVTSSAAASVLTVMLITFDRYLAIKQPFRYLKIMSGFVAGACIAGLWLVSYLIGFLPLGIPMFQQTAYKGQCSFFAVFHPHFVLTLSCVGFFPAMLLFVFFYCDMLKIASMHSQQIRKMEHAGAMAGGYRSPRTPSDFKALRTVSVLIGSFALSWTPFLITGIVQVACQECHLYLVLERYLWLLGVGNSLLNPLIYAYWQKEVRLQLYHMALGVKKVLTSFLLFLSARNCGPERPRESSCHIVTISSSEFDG

[13] = Protein binding in po or iv dosed rat plasma assessed as free fraction; type: ADME, organism-based
[14] = Plasma clearance in po or iv dosed rat plasma; type: ADME, organism-based
[15] = Volume of distribution at steady state in po or iv dosed rat; type: ADME, organism-based; settings: in vivo, read-out: Vdss
[16] = Elimination half life in po or iv dosed rat; type: ADME, organism-based; settings: in vivo, read-out: beta t1/2 (converted)
[17] = Oral bioavailability in rat; type: ADME, organism-based; settings: in vivo
[18] = Drug metabolism in human liver microsomes assessed as peak area for GSH-EE-quinone conjugate formation at 10 uM measured after 60 mins in presence of NADPH by LC-MS/MS analysis; type: ADME, Microsome; settings: 1 h
[19] = AUC(0 to infinity) in human carrying CYP3A5*3/*3 allele at 300 mg, po measured up to 32 hrs; type: ADME, organism-based; parameters: dose 300 mg, route oral, time infinity; settings: in vivo
[20] = AUC(0 to infinity) in human carrying CYP3A5*1/*3 allele at 300 mg, po measured up to 32 hrs; type: ADME, organism-based; parameters: dose 300 mg, route oral, time infinity; settings: in vivo
[21] = AUC(0 to infinity) in human carrying CYP3A5*1/*1 allele at 300 mg, po measured up to 32 hrs; type: ADME, organism-based; parameters: dose 300 mg, route oral, time infinity; settings: in vivo

cGMP-dependent 3',5'-cyclic phosphodiesterase, sequence (O00408 whole entry): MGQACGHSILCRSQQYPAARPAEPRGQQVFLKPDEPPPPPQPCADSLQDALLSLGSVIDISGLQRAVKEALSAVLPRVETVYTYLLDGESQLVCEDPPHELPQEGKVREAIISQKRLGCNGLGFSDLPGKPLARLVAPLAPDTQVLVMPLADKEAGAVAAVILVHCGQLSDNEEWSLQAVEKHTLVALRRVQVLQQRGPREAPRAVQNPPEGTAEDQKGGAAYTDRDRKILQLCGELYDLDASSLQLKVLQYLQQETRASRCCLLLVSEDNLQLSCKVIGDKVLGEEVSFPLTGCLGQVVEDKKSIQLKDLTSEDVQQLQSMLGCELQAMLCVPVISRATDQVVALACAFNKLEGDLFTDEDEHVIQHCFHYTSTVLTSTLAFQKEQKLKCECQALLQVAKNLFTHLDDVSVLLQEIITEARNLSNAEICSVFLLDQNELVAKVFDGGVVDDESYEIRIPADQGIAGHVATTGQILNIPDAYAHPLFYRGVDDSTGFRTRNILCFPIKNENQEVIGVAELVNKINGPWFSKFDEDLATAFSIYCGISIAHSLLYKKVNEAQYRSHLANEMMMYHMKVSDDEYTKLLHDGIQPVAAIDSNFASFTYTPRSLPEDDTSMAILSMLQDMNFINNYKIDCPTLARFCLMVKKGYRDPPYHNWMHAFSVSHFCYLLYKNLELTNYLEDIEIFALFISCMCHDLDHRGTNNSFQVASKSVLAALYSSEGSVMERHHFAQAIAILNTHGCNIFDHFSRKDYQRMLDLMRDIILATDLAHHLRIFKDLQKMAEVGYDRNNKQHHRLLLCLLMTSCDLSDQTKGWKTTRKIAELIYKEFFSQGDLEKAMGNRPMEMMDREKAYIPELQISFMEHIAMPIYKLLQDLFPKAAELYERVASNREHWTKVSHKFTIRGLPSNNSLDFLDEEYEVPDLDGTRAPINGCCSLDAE

- half-life at 1 µM [1]: 8.6 min
- half-life at 1 µM [2]: 0.187 h
- half-life at 1 µM [3]: > 2 h
- clearance [4]: 73 mL/min/kg
- clearance [5]: 12 mL/min/kg
Structure (SMILES): COc1ccc(-c2cc(=O)[nH]c(=S)n2CCO)c(OC)c1

- half-life at 1 µM [6]: > 6.17 h
- half-life at 1 µM [7]: > 6.17 h
- half-life at 1 µM [8]: > 6.17 h
Structure (SMILES): CC(C)OC(=O)N1CCN(c2ncc(-c3ccc4nccnc4c3)cc2C#N)CC1

- pIC50 [9]: 8.00
Structure (SMILES): CCc1ccc(-c2c(-c3nn(C)c4ncnc(N5CC(O)C5)c34)cnn2C)cc1

- pIC50 [9]: 7.38
Structure (SMILES): CC(O)c1ccc(-c2c(-c3nn(C)c4ncnc(N5CCC5)c34)cnn2C)cc1 (centres undefined)

- half-life at 1 µM [6]: > 6.17 h
- half-life at 1 µM [10]: > 6.17 h
- half-life at 1 µM [11]: > 6.17 h
- pEC50 [12]: 8.77
- fraction unbound [13]: 0.03
- clearance [14]: 13.4 mL/min/kg
- Vd [15]: 3 L/kg
- half-life [16]: 2.6 h
- bioavailability [17]: 70%
Structure (SMILES): Cc1cc(-c2ccc(N3CCC(c4nc(C(C)C)no4)CC3)nc2)c(C#N)cc1C#N

- Activity [18]: 3000
Structure (SMILES): C[C@H](Cc1ccc(F)c(F)c1)n1c(-c2ncccc2O)nc2ccnc(C(F)(F)F)c2c1=O

- Activity [18]: 166810
Structure (SMILES): C[C@H](Cc1ccccc1)n1c(-c2ccccc2O)nc2ccnc(C(F)(F)F)c2c1=O

- AUC(0-inf) [19]: 2100 ng·h/mL
- AUC(0-inf) [20]: 1760 ng·h/mL
- AUC(0-inf) [21]: 1240 ng·h/mL
Structure (SMILES): Cc1nnc(C(C)C)n1[C@@H]1C[C@H]2CC[C@@H](C1)N2CC[C@H](NC(=O)C1CCC(F)(F)CC1)c1ccccc1 [MARAVIROC]
